Like-named read-outs stand apart in the source and are kept apart here.
Assays:
[1] = system: Magnaporthe grisea (Pyricularia oryzae—PYRIOR); assay: microbe, parasite or virus in culture; assay type: cell-based; conditions: Pyricularia oryzae, read-out: PYRIOR in vitro Growth Inhibition
[2] = system: Rhizoctonia solani (RHIZSO); assay: microbe, parasite or virus in culture; assay type: cell-based; conditions: Rhizoctonia solani, read-out: RHIZSO in vitro Growth Inhibition
[3] = system: Mycosphaerella graminicola (Septoria tritici—SEPTTR); assay: In vitro fungal growth inhibition, Mycosphaerella graminicola (SEPTTR); assay type: cell-based; conditions: Zymoseptoria tritici, read-out: SEPTTR in vitro Growth Inhibition
[4] = system: Stagonospora nodorum (Leptosphaeria nodorum—LEPTNO); assay: In vitro fungal growth inhibition, Stagonospora nodorum (LEPTNO); assay type: cell-based; conditions: Leptosphaeria, read-out: LEPTNO in vitro Growth Inhibition
Ustilago maydis (USTIMA) = assay: microbe, parasite or virus in culture; assay type: cell-based; conditions: Mycosarcoma maydis, read-out: USTIMA in vitro Growth Inhibition
[5] = system: Phytophthora infestans (PHYTIN); assay: microbe, parasite or virus in culture; assay type: cell-based; conditions: Phytophthora infestans, read-out: PHYTIN in vitro Growth Inhibition
[6] = system: Phytophthora infestans—PHYTIN; assay: whole plant or invertebrate; assay type: in vivo; conditions: Phytophthora, in Solanum lycopersicum, 24 h, read-out: PHYTIN in vivo 1 Day Protectant
[7] = system: Puccinia recondita—PUCCRT; assay: Brown Rust of Wheat, in vivo whole plant, 24 Hour Protectant; conditions: for pest or weed control at 100 ppm: Puccinia, read-out: PUCCRT in vivo 1 Day Protectant
Erysiphe graminis—ERYSGT = assay: Powdery Mildew of Wheat, in vivo whole plant, 24 Hour Protectant; conditions: Erysiphe, read-out: ERYSGT in vivo 1 Day Protectant
Septoria tritici—SEPTTR = assay: Leaf Blotch of Wheat, in vivo whole plant, 24 Hour Protectant; conditions: for pest or weed control at 100 ppm: Zymoseptoria tritici, 24 h, read-out: SEPTTR in vivo 1 Day Protectant
[8] = system: Leptosphaeria nodorum—LEPTNO; assay: Glume Blotch of Wheat, in vivo whole plant, 24 Hour Protectant; conditions: for pest or weed control at 100 ppm: Leptosphaeria, read-out: LEPTNO in vivo 1 Day Protectant
[9] = wheat plants sprayed at 100 ppm, inoculated after 24 hours, control of fungal infection vs untreated plants
[10] = 100 ppm spray, wheat, 24 hour protectant, control of fungal infection vs untreated plants
[11] = 100 ppm spray, 24 hour protectant, wheat, control of fungal infection vs untreated plants
[12] = 100 ppm spray, wheat, 24 hour protectant, % control of fungal infection vs untreated plants

| Compound | inhibition at 25 ppm [1] [%] | inhibition at 25 ppm [2] [%] | inhibition at 25 ppm (Ustilago maydis (USTIMA)) [%] | inhibition at 25 ppm [5] [%] | pest or weed control at 100 ppm [6] [%] | melting point | inhibition at 25 ppm ([3]; 25 ppm in growth medium) [%] | inhibition at 25 ppm ([4]; 25 ppm in growth medium) [%] | pest or weed control at 100 ppm [7, 11] [%] | pest or weed control at 100 ppm (Erysiphe graminis—ERYSGT; [11]) [%] | pest or weed control at 100 ppm (Septoria tritici—SEPTTR; [11]) [%] | pest or weed control at 100 ppm (Erysiphe graminis—ERYSGT; [12]) [%] | other results |
| --- | --- | --- | --- | --- | --- | --- | --- | --- | --- | --- | --- | --- | --- |
| CC(NC(=O)c1nc(Br)ccc1O)c1ccc(Cl)cc1 (stereo not drawn) [Compound 487] | > 80 | < 80 | < 80 | < 80 | < 25 | 106 to 107 °C | – | – | – | – | – | – | inhibition at 25 ppm ([3]; 25 ppm in the growth medium): < 80%; inhibition at 25 ppm ([4]; 25 ppm in the growth medium): < 80%; pest or weed control at 100 ppm [7, 9]: 25 to 74%; pest or weed control at 100 ppm (Erysiphe graminis—ERYSGT; [9]): < 25%; pest or weed control at 100 ppm (Septoria tritici—SEPTTR; [9]): < 25%; pest or weed control at 100 ppm [8, 9]: < 25% |
| COc1ccnc(C(=O)NC2COC(=O)C[C@H](NC(=O)OCc3ccccc3)C(=O)OC2)c1O (stereo partly drawn) [Compound 376] | < 80 | < 80 | < 80 | < 80 | < 25 | 190 to 192 °C | < 80 | < 80 | – | – | – | – | pest or weed control at 100 ppm [7, 10]: < 25%; pest or weed control at 100 ppm (Erysiphe graminis—ERYSGT; [10]): 25 to 74%; pest or weed control at 100 ppm (Septoria tritici—SEPTTR; [10]): 25 to 74%; pest or weed control at 100 ppm [8, 10]: 25 to 74% |
| COc1ccccc1CNC(=O)c1ncccc1O [Compound 224] | > 80 | < 80 | < 80 | < 80 | < 25 | 75 to 76 °C | < 80 | < 80 | < 25 | < 25 | < 25 | – | pest or weed control at 100 ppm [8, 11]: < 25% |
| COc1ccnc(C(=O)Nc2ccc(Sc3cccc(C(F)(F)F)c3)cc2)c1OC(C)=O [Compound 711] | > 80 | < 80 | < 80 | < 80 | < 25 | 134 to 136 °C | > 80 | > 80 | – | – | – | < 25 | pest or weed control at 100 ppm [7, 12]: < 25%; SEPTTR in vivo 1 Day Protectant (Septoria tritici—SEPTTR; [12]): + +; pest or weed control at 100 ppm [8, 12]: 25 to 74% |
| COc1ccnc(C(=O)Nc2ccc(OC3CC(C)(C)OC(C)(C)C3)cc2)c1O [Compound 459] | < 80 | < 80 | < 80 | < 80 | < 25 | 161 to 163 °C | < 80 | < 80 | – | – | – | – | pest or weed control at 100 ppm [7, 10]: 25 to 74%; pest or weed control at 100 ppm (Erysiphe graminis—ERYSGT; [10]): 25 to 74%; pest or weed control at 100 ppm (Septoria tritici—SEPTTR; [10]): 25 to 74%; LEPTNO in vivo 1 Day Protectant [8, 10]: + + |
| COc1ccc(CNC(=O)c2ncccc2O)cc1 [Compound 226] | < 80 | < 80 | < 80 | > 80 | < 25 | 96 to 97 °C | < 80 | < 80 | < 25 | 25 to 74 | < 25 | – | pest or weed control at 100 ppm [8, 11]: < 25% |
| CC1(C)CC(NC(=O)c2cscc2O)CC(C)(C)C1 [Compound 554, 4-HYDROXYTHIOPHENE-N-(3,3,5,5-TETRAMETHYLCYCLOHEXYL)-3-CARBOXAMIDE] | > 80 | < 80 | < 80 | > 80 | < 25 | 170 to 174 °C | – | – | – | – | – | – | inhibition at 25 ppm ([3]; 25 ppm in the growth medium): < 80%; inhibition at 25 ppm ([4]; 25 ppm in the growth medium): > 80%; pest or weed control at 100 ppm [7, 9]: 25 to 74%; pest or weed control at 100 ppm (Erysiphe graminis—ERYSGT; [9]): < 25%; pest or weed control at 100 ppm (Septoria tritici—SEPTTR; [9]): 25 to 74%; pest or weed control at 100 ppm [8, 9]: 25 to 74% |
| COc1ccnc(C(=O)NC2COC(=O)[C@H]3CCCC[C@@H]3C(=O)OC2)c1O [Compound 377] | < 80 | < 80 | < 80 | > 80 | < 25 | 234 to 235 °C | < 80 | < 80 | – | – | – | – | pest or weed control at 100 ppm [7, 10]: < 25%; pest or weed control at 100 ppm (Erysiphe graminis—ERYSGT; [10]): < 25%; pest or weed control at 100 ppm (Septoria tritici—SEPTTR; [10]): < 25%; pest or weed control at 100 ppm [8, 10]: 25 to 74% |
| CCCC(=O)Oc1c(OC)ccnc1C(=O)N[C@H]1COC(=O)[C@H](Cc2ccccc2)[C@@H](OC(=O)C(C)C)[C@H](C)OC1=O [Compound 599] | < 80 | < 80 | < 80 | < 80 | < 25 | 162 to 163 °C | > 80 | > 80 | – | – | – | < 25 | PUCCRT in vivo 1 Day Protectant [7, 12]: + +; SEPTTR in vivo 1 Day Protectant (Septoria tritici—SEPTTR; [12]): + +; LEPTNO in vivo 1 Day Protectant [8, 12]: + + |
| CC(=O)OC1CCC(NC(=O)c2ncccc2O)CC1 (stereo not drawn) [Compound 209] | < 80 | < 80 | < 80 | < 80 | < 25 | 123 to 126 °C | < 80 | < 80 | < 25 | < 25 | 25 to 74 | – | pest or weed control at 100 ppm [8, 11]: < 25% |
| COc1ccnc(C(=O)N[C@H]2COC(=O)[C@H](Cc3ccccc3)[C@@H](OC(=O)C(C)C)[C@H](C)OC2=O)c1OC(=O)CC(C)(C)C [Compound 610] | < 80 | < 80 | < 80 | < 80 | < 25 | 151 to 152 °C | < 80 | > 80 | – | – | – | < 25 | pest or weed control at 100 ppm [7, 12]: 25 to 74%; pest or weed control at 100 ppm (Septoria tritici—SEPTTR; [12]): < 25%; pest or weed control at 100 ppm [8, 12]: < 25% |
| COc1ccnc(C(=O)Nc2ccc(C(=O)Oc3ccc(C(F)(F)F)cc3)cc2)c1OC(C)=O [Compound 717] | < 80 | < 80 | < 80 | < 80 | < 25 | 203 to 205 °C | < 80 | < 80 | – | – | – | < 25 | pest or weed control at 100 ppm [7, 12]: < 25%; pest or weed control at 100 ppm (Septoria tritici—SEPTTR; [12]): 25 to 74%; pest or weed control at 100 ppm [8, 12]: 25 to 74% |
| COc1ccnc(C(=O)N[C@H]2CC[C@H](Oc3ccc(C(F)(F)F)cc3)CC2)c1O [Compound 270] | > 80 | > 80 | > 80 | < 80 | 25 to 74 | 168 to 172 °C (dec.) | > 80 | > 80 | 25 to 74 | 25 to 74 | 25 to 74 | – | LEPTNO in vivo 1 Day Protectant [8, 11]: + + |

From patent publication US6706740B2, “Fungicidal heterocyclic aromatic amides and their compositions, methods of use and preparation” (Dow AgroSciences LLC, priority 1999, dated 2004)
